Measurements published in ChEMBL document CHEMBL4145523, “New selective cyclooxygenase-2 inhibitors from cyclocoumarol: Synthesis, characterization, biological evaluation and molecular modeling” (Eur J Med Chem, 2018).
Active and inactive are the calls of the source. The rule behind the calls is not given here.

Columns and labels:
[1] = target: T1, Prostaglandin G/H synthase 2 (Mus musculus) (UniProt Q05769); experiment: Inhibition of COX-2 in mouse RAW264.7 cells assessed as reduction in PGE2 production preincubated for 2 hrs followed by LPS stimulation measured after 24 hrs by enzyme immunoassay; format: cell-based
T1 sequence (whole entry): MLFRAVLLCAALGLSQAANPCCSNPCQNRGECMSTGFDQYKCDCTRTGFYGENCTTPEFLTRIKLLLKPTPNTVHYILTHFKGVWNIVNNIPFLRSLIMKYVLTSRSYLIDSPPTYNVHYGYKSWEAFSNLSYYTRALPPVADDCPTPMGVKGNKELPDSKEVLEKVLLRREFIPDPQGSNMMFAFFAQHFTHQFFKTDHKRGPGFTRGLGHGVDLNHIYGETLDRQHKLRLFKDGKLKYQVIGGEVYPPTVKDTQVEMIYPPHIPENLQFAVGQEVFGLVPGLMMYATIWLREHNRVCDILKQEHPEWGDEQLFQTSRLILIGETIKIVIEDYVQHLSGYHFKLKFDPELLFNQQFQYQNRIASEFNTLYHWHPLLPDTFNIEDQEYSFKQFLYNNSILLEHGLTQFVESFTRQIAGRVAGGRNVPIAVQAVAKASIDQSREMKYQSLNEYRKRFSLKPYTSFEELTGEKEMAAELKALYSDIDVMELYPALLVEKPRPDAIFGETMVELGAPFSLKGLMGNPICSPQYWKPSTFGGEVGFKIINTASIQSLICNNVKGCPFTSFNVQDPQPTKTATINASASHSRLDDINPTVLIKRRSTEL

[2] = target: T2, Prostaglandin G/H synthase 1 (Mus musculus, UniProt P22437); experiment: Inhibition of COX-1 in mouse RAW264.7 cells assessed as reduction in PGE2 production at 10 uM after 24 hrs by enzyme immunoassay; format: cell-based; conditions: raw264.7, 24 h
T2 sequence (P22437 whole entry): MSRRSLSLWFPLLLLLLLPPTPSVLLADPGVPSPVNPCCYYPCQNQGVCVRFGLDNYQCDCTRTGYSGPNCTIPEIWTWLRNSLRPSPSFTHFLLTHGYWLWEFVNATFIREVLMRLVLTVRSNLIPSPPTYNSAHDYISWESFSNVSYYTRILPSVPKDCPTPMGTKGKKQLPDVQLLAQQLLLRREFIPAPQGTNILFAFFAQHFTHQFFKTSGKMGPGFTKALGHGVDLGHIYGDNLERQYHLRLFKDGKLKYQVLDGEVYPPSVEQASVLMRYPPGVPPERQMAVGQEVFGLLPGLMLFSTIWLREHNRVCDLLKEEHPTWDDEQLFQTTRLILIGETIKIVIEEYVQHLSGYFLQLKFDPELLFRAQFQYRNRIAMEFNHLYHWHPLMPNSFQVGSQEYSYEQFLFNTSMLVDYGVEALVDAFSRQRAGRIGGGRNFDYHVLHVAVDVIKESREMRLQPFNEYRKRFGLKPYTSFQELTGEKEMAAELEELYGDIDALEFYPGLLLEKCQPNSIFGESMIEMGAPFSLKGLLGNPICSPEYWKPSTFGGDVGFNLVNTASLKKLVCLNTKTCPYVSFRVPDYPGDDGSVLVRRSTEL

RAW264.7 [3] = experiment: Antiinflammatory activity against mouse RAW264.7 cells assessed as inhibition of LPS induced cox-2 expression at 5 to 20 uM preincubated for 2 hrs followed by LPS challenge measured after 24 hrs by Western blot method; format: functional, cell-based
RAW264.7 [4] = experiment: Down regulation of COX-1 expression in mouse RAW264.7 cells at 10 uM after 24 hrs by Western blot method; format: ADME, cell-based; conditions: raw264.7, 24 h

COc1ccc(C2CC(C)(OC)Oc3c2c(=O)oc2ccccc32)cc1 (single isomer, unassigned)
inhibition [1]: Dose-dependent effect | inhibition (INH) [2]: Not Active | inhibition (RAW264.7 [3]): inactive | Activity (RAW264.7 [4]): Non-Toxic
